Target: T1, MBP-ANLRP3-HIS (Homo sapiens, UniProt Q96P20, K142A)
T1 construct: made in house; host or cells: Sf21 (IPLB-Sf21-AE) insect cells
Experiment: ATPase activity, ADP-Glo Kinase Assay (Promega)
Assay type: biochemical
Conditions: read-out: Km of ATP
Experimental: Peptide mass fingerprinting confirmed the protein identity while intact mass analysis confirmed the overall integrity of the protein and indicated the loss of the amino-terminal methionine. The theoretical molecular weight and isoelectric point (pI) of MBP-NLRP3-HIS are 145.30 kDa and 6.2, respectively. […] MBP-ANLRP3-HIS protein functionality was assessed based on ATPase activity using an ADP-Glo Kinase Assay (Promega). […] This protein construct was shown via its ATPase activity to have acceptable stability up to 2 hours in conditions mimicking one round of selection in the DEL screen.

Nc1ncnc2c1ncn2[C@@H]1O[C@H](COP(=O)(O)OP(=O)(O)OP(=O)(O)O)[C@@H](O)[C@H]1O [ATP]
Km: 3.08 µM
